According to publication PMC7026418, “The kinase polypharmacology landscape of clinical PARP inhibitors” (Scientific Reports, 2020):
Like-named read-outs stand apart in the source and are kept apart here. Each block holds one molecule with its values, some of them ahead of it.

Tests used:
Assay in all cases: biochemical
Design in all cases: DiscoveRx KINOMEscan active site-directed competition binding; percent of control kinase bound to immobilised ligand
[1] = molecular target: T1, AURKA (Homo sapiens, UniProt O14965)
T1 sequence (O14965 1-403): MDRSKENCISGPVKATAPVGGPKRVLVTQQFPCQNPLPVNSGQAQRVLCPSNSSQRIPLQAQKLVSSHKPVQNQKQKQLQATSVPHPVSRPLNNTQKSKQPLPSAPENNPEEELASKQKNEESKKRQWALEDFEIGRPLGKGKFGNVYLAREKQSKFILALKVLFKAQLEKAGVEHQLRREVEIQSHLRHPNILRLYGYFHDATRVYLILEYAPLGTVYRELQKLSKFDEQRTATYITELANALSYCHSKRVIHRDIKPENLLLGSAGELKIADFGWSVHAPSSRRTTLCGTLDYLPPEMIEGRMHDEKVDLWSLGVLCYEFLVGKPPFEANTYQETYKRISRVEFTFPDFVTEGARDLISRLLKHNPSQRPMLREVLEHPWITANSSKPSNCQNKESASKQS

[2] = molecular target: T2, TSSK3 (Homo sapiens, UniProt Q96PN8)
T2 sequence (Q96PN8 1-268): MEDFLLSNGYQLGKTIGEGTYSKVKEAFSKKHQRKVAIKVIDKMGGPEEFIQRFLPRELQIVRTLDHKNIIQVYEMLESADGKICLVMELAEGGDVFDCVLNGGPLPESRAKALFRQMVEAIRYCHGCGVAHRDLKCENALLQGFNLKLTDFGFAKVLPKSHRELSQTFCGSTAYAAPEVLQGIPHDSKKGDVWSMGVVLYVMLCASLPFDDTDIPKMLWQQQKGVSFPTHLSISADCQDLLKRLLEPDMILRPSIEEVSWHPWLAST

[3] = molecular target: EGFR(L747-S752del, P753S) (Homo sapiens, UniProt P00533, DEL747-752/P753S)
[4] = molecular target: T3, AMPK-alpha1 (Homo sapiens, UniProt Q13131)
T3 construct: gene PRKAA1

[5] = molecular target: T4, RPS6KA5(Kin.Dom.2-C-terminal) (Homo sapiens, UniProt O75582)
T4 construct: Kin.Dom.2-C-terminal

[6] = molecular target: T5, NDR2 (Homo sapiens, UniProt Q9Y2H1)
T5 construct: gene STK38L

[7] = molecular target: T6, VEGFR2 (Homo sapiens, UniProt P35968)
T6 construct: gene KDR

[8] = molecular target: T7, RIPK4 (Homo sapiens, UniProt P57078)
T7 sequence (P57078 1-832): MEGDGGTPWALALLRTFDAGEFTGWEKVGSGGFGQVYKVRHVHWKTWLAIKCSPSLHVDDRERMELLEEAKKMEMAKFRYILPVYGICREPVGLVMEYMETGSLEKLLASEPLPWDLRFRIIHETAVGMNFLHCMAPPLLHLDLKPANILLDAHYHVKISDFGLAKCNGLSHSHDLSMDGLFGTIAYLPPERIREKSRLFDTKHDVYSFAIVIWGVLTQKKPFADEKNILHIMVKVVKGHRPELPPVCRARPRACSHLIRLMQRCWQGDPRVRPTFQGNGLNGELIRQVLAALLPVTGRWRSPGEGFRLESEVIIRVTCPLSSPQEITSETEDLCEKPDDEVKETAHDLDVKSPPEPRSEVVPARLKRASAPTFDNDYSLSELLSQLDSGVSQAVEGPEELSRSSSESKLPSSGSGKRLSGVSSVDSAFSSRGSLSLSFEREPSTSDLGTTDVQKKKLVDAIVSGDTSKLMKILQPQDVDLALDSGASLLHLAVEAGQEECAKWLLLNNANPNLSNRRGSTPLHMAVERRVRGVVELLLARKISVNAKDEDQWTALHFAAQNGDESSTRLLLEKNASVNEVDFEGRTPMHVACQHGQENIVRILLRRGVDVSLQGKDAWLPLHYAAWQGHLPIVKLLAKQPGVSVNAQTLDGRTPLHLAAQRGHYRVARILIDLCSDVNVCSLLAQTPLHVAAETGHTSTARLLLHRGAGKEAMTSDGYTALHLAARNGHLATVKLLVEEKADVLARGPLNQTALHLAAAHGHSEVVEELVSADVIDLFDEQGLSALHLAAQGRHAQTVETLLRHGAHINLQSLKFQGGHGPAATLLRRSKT

[9] = molecular target: T8, ABL1(F317L)-phosphorylated (Homo sapiens, UniProt P00519, F317L)
T8 construct: phosphorylated

[10] = molecular target: T9, PRP4 (Homo sapiens, UniProt Q13523)
T9 construct: gene PRPF4B

[11] = molecular target: KIT(A829P) (Homo sapiens, UniProt P10721, A829P)
[12] = read-out: Olaparib / %Ctrl @ 10000nM
[13] = read-out: Talazoparib (BMN 673) / %Ctrl @ 10000nM
[14] = read-out: Rucaparib / %Ctrl @ 10000nM, binding competition, % of control
[15] = read-out: Niraparib (MK-4827) / %Ctrl @ 10000nM

T4 sequence (O75582 whole entry): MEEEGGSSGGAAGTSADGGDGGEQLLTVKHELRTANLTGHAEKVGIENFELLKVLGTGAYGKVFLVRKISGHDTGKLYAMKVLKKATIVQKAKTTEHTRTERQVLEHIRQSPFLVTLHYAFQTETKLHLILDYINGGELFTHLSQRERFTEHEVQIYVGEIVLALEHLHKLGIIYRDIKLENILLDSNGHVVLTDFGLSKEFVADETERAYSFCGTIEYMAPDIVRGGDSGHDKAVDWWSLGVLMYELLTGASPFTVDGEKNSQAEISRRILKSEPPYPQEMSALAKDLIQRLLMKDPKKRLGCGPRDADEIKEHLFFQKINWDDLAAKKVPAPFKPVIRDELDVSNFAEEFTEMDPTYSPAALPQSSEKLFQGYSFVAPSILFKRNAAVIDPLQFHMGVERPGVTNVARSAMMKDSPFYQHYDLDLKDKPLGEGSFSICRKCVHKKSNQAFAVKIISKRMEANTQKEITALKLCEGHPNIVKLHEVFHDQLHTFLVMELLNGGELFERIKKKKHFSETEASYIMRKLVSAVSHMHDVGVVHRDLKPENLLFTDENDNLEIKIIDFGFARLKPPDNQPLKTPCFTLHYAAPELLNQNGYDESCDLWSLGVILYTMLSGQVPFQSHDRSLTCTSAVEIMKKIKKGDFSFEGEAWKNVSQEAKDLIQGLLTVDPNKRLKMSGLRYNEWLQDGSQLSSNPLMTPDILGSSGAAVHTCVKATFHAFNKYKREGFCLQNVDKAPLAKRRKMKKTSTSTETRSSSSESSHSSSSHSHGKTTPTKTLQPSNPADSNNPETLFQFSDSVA
T6 sequence (P35968 whole entry): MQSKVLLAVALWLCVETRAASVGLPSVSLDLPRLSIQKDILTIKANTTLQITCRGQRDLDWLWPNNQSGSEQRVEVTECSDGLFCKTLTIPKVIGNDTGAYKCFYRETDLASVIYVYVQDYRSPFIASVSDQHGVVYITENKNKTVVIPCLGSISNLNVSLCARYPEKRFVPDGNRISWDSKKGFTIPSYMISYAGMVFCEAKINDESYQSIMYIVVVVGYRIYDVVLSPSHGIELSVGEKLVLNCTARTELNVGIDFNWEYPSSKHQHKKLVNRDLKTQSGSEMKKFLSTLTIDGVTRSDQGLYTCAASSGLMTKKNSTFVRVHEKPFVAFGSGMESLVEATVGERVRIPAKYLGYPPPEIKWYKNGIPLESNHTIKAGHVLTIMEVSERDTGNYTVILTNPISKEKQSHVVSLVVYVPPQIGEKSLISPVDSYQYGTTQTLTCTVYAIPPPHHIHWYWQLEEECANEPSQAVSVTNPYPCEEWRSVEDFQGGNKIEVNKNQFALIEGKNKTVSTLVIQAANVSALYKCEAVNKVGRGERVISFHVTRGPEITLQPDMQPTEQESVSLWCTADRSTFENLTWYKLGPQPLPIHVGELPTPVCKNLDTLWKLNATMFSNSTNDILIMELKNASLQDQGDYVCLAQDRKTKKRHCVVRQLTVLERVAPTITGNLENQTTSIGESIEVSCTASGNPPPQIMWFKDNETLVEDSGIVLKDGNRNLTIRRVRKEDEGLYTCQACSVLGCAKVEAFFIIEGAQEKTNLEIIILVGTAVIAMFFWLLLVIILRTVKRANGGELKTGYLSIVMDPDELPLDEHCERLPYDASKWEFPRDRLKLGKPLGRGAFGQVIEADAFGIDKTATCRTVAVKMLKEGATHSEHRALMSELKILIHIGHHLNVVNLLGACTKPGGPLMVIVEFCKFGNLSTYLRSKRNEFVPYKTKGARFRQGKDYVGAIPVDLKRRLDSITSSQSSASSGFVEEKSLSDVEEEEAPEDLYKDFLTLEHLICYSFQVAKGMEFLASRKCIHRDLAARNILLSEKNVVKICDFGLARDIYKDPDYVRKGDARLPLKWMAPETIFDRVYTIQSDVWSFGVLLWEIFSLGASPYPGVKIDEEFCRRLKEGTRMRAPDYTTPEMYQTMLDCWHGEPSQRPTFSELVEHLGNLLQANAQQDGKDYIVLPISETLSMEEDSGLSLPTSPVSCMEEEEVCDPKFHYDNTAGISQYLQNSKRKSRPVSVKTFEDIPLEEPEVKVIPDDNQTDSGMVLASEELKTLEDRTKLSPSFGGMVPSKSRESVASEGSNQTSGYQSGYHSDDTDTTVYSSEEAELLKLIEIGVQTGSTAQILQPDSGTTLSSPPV
Chain of KIT(A829P) (P10721 whole entry A829P): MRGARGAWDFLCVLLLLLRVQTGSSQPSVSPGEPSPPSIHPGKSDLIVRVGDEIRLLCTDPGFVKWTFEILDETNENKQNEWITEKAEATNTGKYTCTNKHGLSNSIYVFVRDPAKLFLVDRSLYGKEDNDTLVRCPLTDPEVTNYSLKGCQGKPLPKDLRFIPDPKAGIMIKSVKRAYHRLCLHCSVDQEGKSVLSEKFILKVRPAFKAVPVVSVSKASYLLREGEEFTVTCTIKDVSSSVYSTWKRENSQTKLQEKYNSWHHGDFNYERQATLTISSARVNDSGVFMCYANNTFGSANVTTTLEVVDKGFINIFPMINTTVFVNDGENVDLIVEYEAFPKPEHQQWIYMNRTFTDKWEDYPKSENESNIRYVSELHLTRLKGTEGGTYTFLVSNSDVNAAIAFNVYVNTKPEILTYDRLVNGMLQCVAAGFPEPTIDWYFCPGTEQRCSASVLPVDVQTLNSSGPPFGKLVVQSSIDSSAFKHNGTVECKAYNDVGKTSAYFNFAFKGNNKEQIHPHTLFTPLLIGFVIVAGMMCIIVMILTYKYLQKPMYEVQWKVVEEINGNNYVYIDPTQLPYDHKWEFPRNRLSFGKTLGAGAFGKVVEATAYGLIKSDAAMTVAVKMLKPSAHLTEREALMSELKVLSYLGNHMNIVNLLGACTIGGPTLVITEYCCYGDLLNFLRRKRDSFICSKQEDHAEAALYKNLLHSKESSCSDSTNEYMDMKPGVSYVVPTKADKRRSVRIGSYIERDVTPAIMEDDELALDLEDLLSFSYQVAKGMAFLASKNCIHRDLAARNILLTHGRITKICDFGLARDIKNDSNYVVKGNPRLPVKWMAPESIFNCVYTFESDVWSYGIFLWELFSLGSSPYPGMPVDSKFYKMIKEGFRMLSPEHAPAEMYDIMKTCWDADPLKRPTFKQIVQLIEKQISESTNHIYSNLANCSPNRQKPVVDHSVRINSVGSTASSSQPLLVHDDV
T8 sequence (P00519 whole entry F317L): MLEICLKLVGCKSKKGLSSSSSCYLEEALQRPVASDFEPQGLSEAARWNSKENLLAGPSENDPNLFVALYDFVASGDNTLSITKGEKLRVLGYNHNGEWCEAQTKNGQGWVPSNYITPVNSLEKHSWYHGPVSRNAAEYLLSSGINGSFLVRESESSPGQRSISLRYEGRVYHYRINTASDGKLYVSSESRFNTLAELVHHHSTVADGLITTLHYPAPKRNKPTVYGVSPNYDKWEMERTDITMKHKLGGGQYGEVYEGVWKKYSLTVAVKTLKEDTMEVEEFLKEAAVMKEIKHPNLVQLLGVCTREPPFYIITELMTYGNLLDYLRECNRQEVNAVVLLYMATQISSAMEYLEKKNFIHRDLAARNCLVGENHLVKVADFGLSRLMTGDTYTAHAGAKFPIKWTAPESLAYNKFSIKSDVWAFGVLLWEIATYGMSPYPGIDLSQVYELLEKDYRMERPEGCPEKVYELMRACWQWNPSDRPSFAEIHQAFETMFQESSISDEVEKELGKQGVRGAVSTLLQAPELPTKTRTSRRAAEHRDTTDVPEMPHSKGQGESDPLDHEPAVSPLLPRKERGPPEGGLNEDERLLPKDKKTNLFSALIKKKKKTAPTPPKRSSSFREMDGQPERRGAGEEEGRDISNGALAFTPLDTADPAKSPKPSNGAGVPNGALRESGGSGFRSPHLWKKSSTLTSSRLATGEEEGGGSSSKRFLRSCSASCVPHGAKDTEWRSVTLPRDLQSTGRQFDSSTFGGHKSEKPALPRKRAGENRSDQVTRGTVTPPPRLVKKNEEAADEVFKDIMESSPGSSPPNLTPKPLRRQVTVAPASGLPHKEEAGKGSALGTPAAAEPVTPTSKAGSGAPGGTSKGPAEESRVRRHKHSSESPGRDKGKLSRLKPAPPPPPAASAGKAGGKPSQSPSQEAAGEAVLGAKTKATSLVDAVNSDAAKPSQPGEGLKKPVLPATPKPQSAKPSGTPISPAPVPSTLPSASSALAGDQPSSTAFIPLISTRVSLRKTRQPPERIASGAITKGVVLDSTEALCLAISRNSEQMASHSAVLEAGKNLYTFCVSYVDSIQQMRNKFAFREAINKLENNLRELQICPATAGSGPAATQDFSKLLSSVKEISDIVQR
T5 sequence (Q9Y2H1 whole entry): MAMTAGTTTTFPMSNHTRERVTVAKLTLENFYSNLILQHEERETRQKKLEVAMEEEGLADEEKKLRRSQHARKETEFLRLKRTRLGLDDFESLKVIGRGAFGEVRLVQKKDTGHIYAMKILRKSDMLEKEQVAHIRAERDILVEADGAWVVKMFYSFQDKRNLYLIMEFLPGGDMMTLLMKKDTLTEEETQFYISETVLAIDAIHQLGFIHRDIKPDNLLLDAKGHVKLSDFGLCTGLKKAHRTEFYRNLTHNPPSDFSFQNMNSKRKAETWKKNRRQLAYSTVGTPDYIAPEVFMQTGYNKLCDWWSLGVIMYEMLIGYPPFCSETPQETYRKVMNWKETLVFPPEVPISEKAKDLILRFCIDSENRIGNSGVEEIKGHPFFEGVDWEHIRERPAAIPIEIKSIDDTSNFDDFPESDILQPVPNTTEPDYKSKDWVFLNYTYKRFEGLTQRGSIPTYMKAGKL

- percent of control binding at 10 µM [1, 12]: 91%
- percent of control binding at 10 µM [2, 12]: 89%
- percent of control binding at 10 µM [3, 12]: 100%
- percent of control binding at 10 µM [4, 12]: 98%
- percent of control binding at 10 µM [5, 12]: 97%
- percent of control binding at 10 µM [6, 12]: 97%
- percent of control binding at 10 µM [7, 12]: 95%
- percent of control binding at 10 µM [8, 12]: 81%
- percent of control binding at 10 µM [9, 12]: 95%
- percent of control binding at 10 µM [10, 12]: 82%
Compound: O=C(c1cc(Cc2n[nH]c(=O)c3ccccc23)ccc1F)N1CCN(C(=O)C2CC2)CC1 [Olaparib]

- percent of control binding at 10 µM [11, 13]: 100%
- percent of control binding at 10 µM [1, 13]: 84%
- percent of control binding at 10 µM [2, 13]: 84%
- percent of control binding at 10 µM [3, 13]: 98%
- percent of control binding at 10 µM [4, 13]: 100%
- percent of control binding at 10 µM [5, 13]: 80%
- percent of control binding at 10 µM [6, 13]: 83%
- percent of control binding at 10 µM [7, 13]: 100%
- percent of control binding at 10 µM [8, 13]: 69%
- percent of control binding at 10 µM [9, 13]: 50%
- percent of control binding at 10 µM [10, 13]: 100%
Compound: Cn1ncnc1[C@H]1c2n[nH]c(=O)c3cc(F)cc(c23)N[C@@H]1c1ccc(F)cc1 [Talazoparib]

- percent of control binding at 10 µM [11, 14]: 88%
- percent of control binding at 10 µM [1, 14]: 75%
- percent of control binding at 10 µM [2, 14]: 0%
- percent of control binding at 10 µM [3, 14]: 100%
- percent of control binding at 10 µM [4, 14]: 92%
- percent of control binding at 10 µM [5, 14]: 77%
- percent of control binding at 10 µM [6, 14]: 86%
- percent of control binding at 10 µM [7, 14]: 98%
- percent of control binding at 10 µM [8, 14]: 75%
- percent of control binding at 10 µM [9, 14]: 74%
- percent of control binding at 10 µM [10, 14]: 85%
Compound: CNCc1ccc(-c2[nH]c3cc(F)cc4c3c2CCNC4=O)cc1 [Rucaparib]

Compound: NC(=O)c1cccc2cn(-c3ccc([C@@H]4CCCNC4)cc3)nc12 [Niraparib]
- percent of control binding at 10 µM [11, 15]: 98%
- percent of control binding at 10 µM [1, 15]: 25%
- percent of control binding at 10 µM [2, 15]: 91%
- percent of control binding at 10 µM [3, 15]: 93%
- percent of control binding at 10 µM [4, 15]: 77%
- percent of control binding at 10 µM [5, 15]: 96%
- percent of control binding at 10 µM [6, 15]: 77%
- percent of control binding at 10 µM [7, 15]: 77%
- percent of control binding at 10 µM [8, 15]: 81%
- percent of control binding at 10 µM [9, 15]: 100%
- percent of control binding at 10 µM [10, 15]: 97%
